From publication PMC12851007 (Angewandte Chemie (International Ed. in English), 2025)
Where a SMILES comes first, the peptide text is derived from it.

Key:
[1] = Dual-channel assay, CF channel, POPC vesicles; type: biochemical; settings: 12.5 µM POPC⸧CX4/LCG-LUVs and 12.5 µM POPC⸧CF-LUVs in 10 mM Hepes, 175 mM glucose, pH 7.5, 25 °C; λexc 525/λem 545 nm; error = SD of fit, n = 1
Excerpt: With the established identical extravesicular conditions in both assays, we further envisaged a simultaneous measurement of both assays within the same solution to enhance the comparability of the measurements. This became possible after optimization of the excitation and emission wavelengths. […] A further optimization was required, because the dye concentrations in the CF assay and the CX4/LCG assay are largely different.^[ [51], [52] ^] Consequently, simultaneous monitoring requires the detection of a low amount of LCG in the presence of a high concentration of the much more brightly fluorescent CF, which challenges the dynamic range of a typical fluorescence spectrometer in a dual‐channel measurement. To reduce the fluorescence read‐out of CF, the excitation wavelength was shifted from the absorption maximum at ca. 490 nm to 525 nm, where CF has a much lower absorbance, and the emission in the CF channel was shifted from its maximum at ca. 515 nm to 545 nm to further reduce the fluorescence of CF. To maintain a high LCG fluorescence, excitation was performed at the absorption maximum at 369 nm. Since CF has a residual absorbance at this excitation wavelength, emission in the LCG channel was monitored at 475 nm instead of 502 nm to eliminate spill‐over of CF fluorescence into the LCG channel. […]
(§1) Time-dep endent fluores cence intensit y traces, I (t), were subsequentl y normalized to fractional intensities, If(t), using equation (1) and the concentration- dependent fractional intensities just before the addition of th e calibration co cktail, I f, w ere then normaliz ed to fr actional membran e activities, Y, using equation (2). The fractional membrane activities, Y, were subsequently plotted against the peptide concentration, c, and anal ysed using the Hill equation (3) to obtain the effective molar concentration, EC 50, and the Hill coefficient, n. For peptides with too low activity to determine Y max ex perimentall y, Y max was fixed at 1.0 during fitting. […]
(§2) Dual-Channel Measurements
(§3) Vesicles w ere prep ared a s described abov e (se e en try (4) in Table S2 and entry (3) in Table S3) and eluted with freshl y prepared 10 mM Hepes, 175mM glucos e, pH 7.5 i n the size exclusion chromatograph y. […] The fluorescence intensity w as simultaneous l y r eco rded in the CF chann el ( λ exc = 525 nm, λ em = 545 nm) and in the LCG channel ( λ exc = 369 nm, λ em = 475 nm) with an ex citation slit width of 5 nm and an emission slit width of 5 n m during addition of 20 µL peptide stock solution of varying concentrations at 60 s and 20 µL of a calibration

[2] = Dual-channel assay, CX4/LCG channel, POPC/POPS vesicles; type: in vitro ADME; settings: 12.5 µM POPC/POPS(9:1)⸧CX4/LCG-LUVs and 12.5 µM POPC/POPS(9:1)⸧CF-LUVs in 10 mM Hepes, 175 mM glucose, pH 7.5; error = SD of fit, n = 1
Excerpt: (§4) Ultimately, we have also tested the new conditions with vesicles containing the anionic lipid 1‐palmitoyl‐2‐oleoyl‐phosphatidylserine (POPS) with TP10, Pep‐1, and the LRLLRW peptide (Figures S41–S43 and Table S11). The results confirmed that the absolute activity as well as the difference between the CF dye efflux assay and the tandem membrane assay was nearly unaffected by the presence of 10% POPS with the only exception that the membrane‐translocating ability of TP10 was enhanced.
(§5) Assay protocol. An appropriate volume of the liposome stock solutions was diluted to 2 mL with outside buffer in a 10 ×10 mm quartz glass cuvette to afford a phospholipid concentration of 25 µM. The cuvette was placed into a thermostatted fluorimeter sample holder and gentl y stirred at 300 rpm at (25.0± 0.1) °C. Subsequentl y, the time-dependent change in fluorescence intensity (C F: λ exc = 492 nm, λ em = 517 nm) was recorded during addition of 20 µL peptide stock solution of var ying concentrations at 60 s and 20µ L of a calibration cocktail (1. 6% […]
as §1, §2
Vesicles w ere prep ared a s described abov e (se e en try (4) in Table S2 and entry (3) in Table S3) and eluted with freshl y prepared 10 mM Hepes, 175mM glucos e, pH 7.5 i n the size exclusion chromatograph y. For the measurements, an approp riate volume o f the liposome stock solutions was diluted to 2m L in a 10× 10 mm PS cuvette wi th 10 mM Hep es bu ffer and 175 mM glucos e at pH 7.5 to afford 12.5µM POPC ⊃CX4/LCG-LUVs and 12.5 µM POPC⊃CF-LUVs (25 µM POPC total). The cuvette was placed into a thermostatted fluorimeter sample holder at 25.0 °C and gentl y stirred at 300 rpm. The fluorescence intensity w as simultaneous l y r eco rded in the CF chann el ( λ exc = 525 nm, λ em = 545 nm) and in the LCG channel ( λ exc = 369 nm, λ em = 475 nm) with an ex citation slit width of 5 nm and an emission slit width of 5 n m during addition of 20 µL peptide stock solution of varying concentrations at 60 s and 20 µL of a calibration

[3] = Dual-channel assay, CF channel, POPC/POPS vesicles; type: biochemical; settings: 12.5 µM POPC/POPS(9:1)⸧CX4/LCG-LUVs and 12.5 µM POPC/POPS(9:1)⸧CF-LUVs in 10 mM Hepes, 175 mM glucose, pH 7.5; error = SD of fit, n = 1
Excerpt: as §4, §5
Time-dep endent fluores cence intensit y traces, I (t), were subsequentl y normalized to fractional intensities, If(t), using equation (1) and the concentration- dependent fractional intensities just before the addition of th e calibration co cktail, I f, w ere then normaliz ed to fr actional membran e activities, Y, using equation (2). […]
as §3

| Structure (SMILES) | EC50 [1] [µM] | EC50 [2] [µM] | EC50 [3] [µM] | EC50, dual-channel assay, CX4/LCG channel, POPC/POPS [2] |
| --- | --- | --- | --- | --- |
| CC[C@H](C)[C@H](NC(=O)[C@H](CCCCN)NC(=O)[C@@H](NC(=O)[C@@H](N)CCC(N)=O)[C@@H](C)CC)C(=O)N[C@@H](Cc1c[nH]c2ccccc12)C(=O)N[C@@H](Cc1ccccc1)C(=O)N[C@@H](CCC(N)=O)C(=O)N[C@@H](CC(N)=O)C(=O)N[C@@H](CCCNC(=N)N)C(=O)N[C@@H](CCCNC(=N)N)C(=O)N[C@@H](CCSC)C(=O)N[C@@H](CCCCN)C(=O)N[C@@H](Cc1c[nH]c2ccccc12)C(=O)N[C@@H](CCCCN)C(=O)N[C@@H](CCCCN)C(=O)O (H-QIKIWFQNRRMKWKK-OH) | > 1000 |  |  |  |
| CC(C)C[C@H](NC(=O)[C@H](CC(C)C)NC(=O)[C@H](CCCNC(=N)N)NC(=O)[C@@H](N)CC(C)C)C(=O)N[C@@H](CCCNC(=N)N)C(=O)N[C@@H](Cc1c[nH]c2ccccc12)C(N)=O [LRLLRW] (H-LRLLRW-NH2) | 49 ± 6 | 9 ± 1.6 | 28 ± 10 |  |
| CC(C)[C@H](NC(=O)[C@H](CCCCN)NC(=O)[C@H](CCCNC(=N)N)NC(=O)[C@H](CCCCN)NC(=O)[C@H](CCCCN)NC(=O)[C@H](CCCCN)NC(=O)[C@@H]1CCCN1C(=O)[C@H](CCC(N)=O)NC(=O)[C@H](CO)NC(=O)[C@H](Cc1c[nH]c2ccccc12)NC(=O)[C@H](CC(=O)O)NC(=O)[C@@H](NC(=O)[C@H](Cc1c[nH]c2ccccc12)NC(=O)[C@H](Cc1c[nH]c2ccccc12)NC(=O)[C@@H](NC(=O)[C@H](CC(=O)O)NC(=O)[C@H](Cc1c[nH]c2ccccc12)NC(=O)[C@H](Cc1c[nH]c2ccccc12)NC(=O)[C@@H](NC(=O)[C@H](CC(=O)O)NC(=O)[C@@H](N)CCCCN)[C@@H](C)O)[C@@H](C)O)[C@@H](C)O)C(=O)O [Pep‐1] (H-KDTWWDTWWTDWSQPKKKRKV-OH) | > 1000 | 5.3 ± 0.66 | 698 ± 55 |  |
| CC[C@H](C)[C@H](NC(=O)[C@H](CCCCN)NC(=O)[C@H](CCCCN)NC(=O)[C@H](C)NC(=O)[C@H](CC(C)C)NC(=O)[C@H](C)NC(=O)[C@H](C)NC(=O)[C@H](CC(C)C)NC(=O)[C@H](C)NC(=O)[C@H](CCCCN)NC(=O)[C@H](CC(C)C)NC(=O)[C@H](CC(N)=O)NC(=O)[C@@H](NC(=O)[C@H](CCCCN)NC(=O)CNC(=O)[C@H](CC(C)C)NC(=O)[C@H](CC(C)C)NC(=O)[C@H](Cc1ccc(O)cc1)NC(=O)CNC(=O)[C@H](C)N)[C@@H](C)CC)C(=O)N[C@@H](CC(C)C)C(=O)O [TP10] | 0.053 ± 0.007 | 0.076 ± 0.01 | 0.027 ± 0.002 | enhanced |
